# Values quoted from earlier work, collected in article PMC6105163, “Abaloparatide Exerts Bone Anabolic Effects with Less Stimulation of Bone Resorption-Related Factors: A Comparison with Teriparatide” (Calcified Tissue International, 2018).
# Ends that are not written are not given here.
# Assays:
# [1] = test system: bone mass; details: cited from earlier work; for effect of continuous infusion: in vivo; for bone mass, intermittent administration: ref [2], [3]
# Description: Parathyroid hormone (PTH) and PTH-related protein (PTHrP) have a common G protein-coupled receptor, PTH1R, which plays a pivotal role in bone turnover and calcium homeostasis.
# [2] = test system: bone turnover; details: preclinical study, ref [25], cited from earlier work
# Description: (§1) There is another possibility that the two peptides could show the different activity on protein kinase C (PKC). PKC is the downstream signal of PTH1R and is involved in the stimulation of bone resorption-related factors and bone catabolism. In fact, ostabolin, an amidated form of human PTH(1–31), differs from PTH(1–34) in PKC activation.
# [3] = test system: cAMP and PKC; details: ref [24]; cited from earlier work
# Description: as §1
Substance,effect of continuous infusion [1],"bone mass, intermittent administration [1]",bone resorption ([2]; vs PTH(1–34)),bone formation [2],cAMP accumulation and PKC activation [3]
PTHrP: PTH-related protein,caused bone loss and hypercalcemia,increased bone mass,,,
PTH: Parathyroid hormone,caused bone loss and hypercalcemia,increased bone mass,,,
"ostabolin: an amidated form of human PTH(1–31) (SVSEIQLMHNLGKHLNSMERVEWLRKKLQDV-NH2; UniProt P01270 32-62, looked up, fragment)",,,less effect on bone resorption than PTH(1–34),stimulated bone formation similar to PTH(1–34),cAMP accumulation without activating PKC
